Test results published in ChEMBL document CHEMBL1133228, “Synthesis and PTP1B inhibition of novel 4-aryl-1-oxa-9-thiacyclopenta[b]fluorenes” (Bioorg Med Chem Lett, 2000).

Experiments:
Mus musculus [1] = experiment: Reduction in insulin-induced protein tyrosine phosphorylation in liver of ob/ob mice at 10 mg/kg perorally; format: functional; conditions: route oral
[2] = biological target: T1, Tyrosine-protein phosphatase non-receptor type 1 (Homo sapiens, UniProt P18031); experiment: Compound was evaluated for the inhibitory activity against recombinant Protein-tyrosine phosphatase 1B using, phosphotyrosyl dodecapeptide [TRDI(P)YETD(P)Y(P)YRK] as substrate
T1 sequence (P18031 whole entry): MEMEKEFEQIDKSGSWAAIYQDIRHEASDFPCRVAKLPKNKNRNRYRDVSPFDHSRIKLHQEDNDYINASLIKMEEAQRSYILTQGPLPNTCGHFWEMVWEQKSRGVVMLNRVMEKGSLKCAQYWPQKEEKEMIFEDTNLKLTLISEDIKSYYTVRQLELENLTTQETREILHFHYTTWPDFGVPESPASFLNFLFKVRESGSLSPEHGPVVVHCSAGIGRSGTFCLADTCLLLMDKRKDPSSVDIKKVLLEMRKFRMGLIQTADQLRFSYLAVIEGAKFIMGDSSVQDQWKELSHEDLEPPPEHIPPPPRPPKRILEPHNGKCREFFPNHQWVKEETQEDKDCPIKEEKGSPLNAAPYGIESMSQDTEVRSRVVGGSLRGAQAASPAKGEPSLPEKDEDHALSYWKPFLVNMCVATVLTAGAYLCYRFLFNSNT

Mus musculus [3] = experiment: Reduction in insulin-induced protein tyrosine phosphorylation in liver of ob/ob mice at 25 mg/kg perorally; format: functional; conditions: route oral

Row | IC50 [2] | Compound | Insulin lowering effect (Mus musculus [1]) | Insulin lowering effect (Mus musculus [3])
1 |  | Cc1oc2cc3sc4ccccc4c3c(-c3cc(I)c(O[C@H](Cc4ccccc4)C(=O)O)c(I)c3)c2c1C | 43% | 
2 | 179 nM | O=C(O)[C@@H](Cc1ccccc1)Oc1c(I)cc(-c2c3ccccc3cc3sc4ccccc4c23)cc1I |  | 68%
